Data: BigSolDB 2.1

O=C1NC23NC(=O)NC2(N1)C(=O)NC3=O (stereo not given)
solubility (mole fraction)
Settings	273.15 K	278.15 K	283.15 K	288.15 K	293.15 K	298.15 K	303.15 K	308.15 K	313.15 K	318.15 K
in 1,4-dioxane	0.000149	0.000174	0.000214	0.000267	0.000333	0.000453	0.000601	0.000696	0.000856	0.00102
in THF	0.000553	0.000655	0.000783	0.000992	0.00121	0.00151	0.00192	0.00224	0.00274	0.00325
in acetone	5.58e-05	6.73e-05	7.84e-05	9.4e-05	0.000114	0.000131	0.000158	0.00018	0.000202	0.000246
in acetonitrile	9e-06	1.15e-05	1.43e-05	1.72e-05	2.16e-05	2.75e-05	3.6e-05	4.4e-05	5.5e-05	6.79e-05
in ethanol	6.15e-05	7.48e-05	9.23e-05	0.000113	0.000136	0.00017	0.000214	0.000264	0.000322	0.000419
in ethyl acetate	2.59e-05	3.38e-05	4.59e-05	6.9e-05	9.2e-05	0.000124	0.000167	0.000225	0.000322	0.000413
in ethylene glycol	0.00029	0.000326	0.00036	0.000404	0.000459	0.000516	0.000587	0.000638	0.00073	0.000822
in isopropanol	0.000113	0.000133	0.000162	0.000192	0.000234	0.000284	0.000364	0.000482	0.000526	0.000614
in methanol	0.00161	0.00184	0.00243	0.00286	0.00348	0.00409	0.0049	0.00592	0.00727	0.00843
in n-propanol	2.56e-05	3.13e-05	3.83e-05	4.65e-05	6.12e-05	8.12e-05	0.000103	0.000122	0.000151	0.00019
in toluene	3.2e-06	4.3e-06	5.4e-06	6.1e-06	8.4e-06	1.05e-05	1.28e-05	1.5e-05	1.95e-05	2.6e-05
in water	5.92e-05	7.18e-05	9.34e-05	0.000126	0.000159	0.000188	0.000223	0.00025	0.000313	0.000369
